In US12516064B2, “Tetrahydropyridopyrimidines and related analogs for inhibiting YAP/TAZ-TEAD” (THE KATHOLIEKE UNIVERSITEIT LEUVEN, priority 2022, dated 2026):

Tested on: YAP/TAZ-TEAD transcription
Test: Reporter gene assay for measuring the inhibition of YAP/TAZ-TEAD transcription
Assay type: cell-based
Details: Homo sapiens, HEK-293T; Hek293T cells transiently transfected with TEAD-responsive element luciferase reporter; 24 hours incubation
Description: Hek293T cells are cultured in DMEM supplemented with 10% fetal bovine serum, Sodium pyruvate, Sodium bicarbonate, L-glutamine. The cells are harvested and transiently transfected with TEAD-responsive element luciferase reporter. Transfected cells are plated in 384-wells plate containing pre-diluted compounds. After 24 hours incubation at 37° C./5% CO2, assay plates were cooled down to RT and levelled to an equal volume per well, prior to the addition of 25 uL luciferase substrate SteadyLite (Perkin Elmer)/well. The plate was shaken for 10 min at 600 rpm, centrifuged for 1 min at 500 rpm and measured with an Envision reader (PerkinElmer). The amount of relative light units produced by the TEAD reporter is used to calculated percent of inhibition.
The percent of reporter inhibition was calculated in the presence of a positive control inhibitor (100% inhibition) versus a condition with the presence of the vehicle basal activity of the reporter (0% inhibition). The ability of a test compound to inhibit this activity was determined as: Percentage inhibition=[1−((RLU determined in the presence of vehicle−RLU determined for sample with test compound present) divided by (RLU determined in the presence of vehicle−RLU determined for sample with positive control inhibitor))]*100 The activities of example compounds tested are depicted in Table 8. The activity ranges A, B and C refer to IC50 values in the reporter gene assay as follows: “A”: EC50<1 μM; “B”: 1 μM≤EC50≤3.0 μM and “C”: EC50>3.0 μM, NT=not tested.

| EC50 [µM] | SMILES |
| --- | --- |
| > 3 | Cn1ccc(-c2nc(-c3ccccc3)nc3c2CC(N)CC3)n1 (stereo not drawn) [Cpd. No. 1, 4-(1-methyl-1H-pyrazol-3-yl)-2-phenyl-5,6,7,8-tetrahydroquinazolin-6-amine] |
| > 3 | C=CC(=O)NC1CCc2nc(-c3ccccc3)nc(-c3ccn(C)n3)c2C1 (stereo not drawn) [Cpd. No. 2, N-(4-(1-methyl-1H-pyrazol-3-yl)-2-phenyl-5,6,7,8-tetrahydroquinazolin-6-yl)acrylamide] |
| > 3 | CCC(=O)NC1CCc2nc(-c3ccccc3)nc(-c3ccn(C)n3)c2C1 (stereo not drawn) [Cpd. No. 3, N-(4-(1-methyl-1H-pyrazol-3-yl)-2-phenyl-5,6,7,8-tetrahydroquinazolin-6-yl)propionamide] |
| > 3 | Cn1ccc(-c2nc(-c3ccccc3)nc3c2CC(NS(C)(=O)=O)CC3)n1 (stereo not drawn) [Cpd. No. 4, N-(4-(1-methyl-1H-pyrazol-3-yl)-2-phenyl-5,6,7,8-tetrahydroquinazolin-6-yl)methanesulfonamide] |
| > 3 | Cn1ccc(-c2nc(-c3ccccc3)nc3c2CCC(N)C3)n1 (stereo not drawn) [Cpd. No. 5, 4-(1-methyl-1H-pyrazol-3-yl)-2-phenyl-5,6,7,8-tetrahydroquinazolin-7-amine] |
| > 3 | C=CC(=O)NC1CCc2c(nc(-c3ccccc3)nc2-c2ccn(C)n2)C1 (stereo not drawn) [Cpd. No. 6, N-(4-(1-methyl-1H-pyrazol-3-yl)-2-phenyl-5,6,7,8-tetrahydroquinazolin-7-yl)acrylamide] |
| > 3 | CCC(=O)NC1CCc2c(nc(-c3ccccc3)nc2-c2ccn(C)n2)C1 (stereo not drawn) [Cpd. No. 7, N-(4-(1-methyl-1H-pyrazol-3-yl)-2-phenyl-5,6,7,8-tetrahydroquinazolin-7-yl)propionamide] |
| > 3 | Cn1ccc(-c2nc(-c3ccccc3)nc3c2CCC(NS(C)(=O)=O)C3)n1 (stereo not drawn) [Cpd. No. 8, N-(4-(1-methyl-1H-pyrazol-3-yl)-2-phenyl-5,6,7,8-tetrahydroquinazolin-7-yl)methanesulfonamide] |
| > 3 | C=CC(=O)NC1CCc2nc(-c3ccccc3)nc(-c3ccn(Cc4cccnc4)n3)c2C1 (stereo not drawn) [Cpd. No. 9, N-(2-phenyl-4-(1-(pyridin-3-ylmethyl)-1H-pyrazol-3-yl)-5,6,7,8-tetrahydroquinazolin-6-yl)acrylamide] |
| > 3 | CCC(=O)NC1CCc2nc(-c3ccccc3)nc(-c3ccn(Cc4cccnc4)n3)c2C1 (stereo not drawn) [Cpd. No. 10, N-(2-phenyl-4-(1-(pyridin-3-ylmethyl)-1H-pyrazol-3-yl)-5,6,7,8-tetrahydroquinazolin-6-yl)propionamide] |
| 1 to 3 | C=CC(=O)NC1CCc2c(nc(-c3ccccc3)nc2-c2ccn(Cc3cccnc3)n2)C1 (stereo not drawn) [Cpd. No. 11, N-(2-phenyl-4-(1-(pyridin-3-ylmethyl)-1H-pyrazol-3-yl)-5,6,7,8-tetrahydroquinazolin-7-yl)acrylamide] |
| > 3 | CCC(=O)NC1CCc2c(nc(-c3ccccc3)nc2-c2ccn(Cc3cccnc3)n2)C1 (stereo not drawn) [Cpd. No. 12, N-(2-phenyl-4-(1-(pyridin-3-ylmethyl)-1H-pyrazol-3-yl)-5,6,7,8-tetrahydroquinazolin-7-yl)propionamide] |
| > 3 | CS(=O)(=O)NC1CCc2c(nc(-c3ccccc3)nc2-c2ccn(Cc3cccnc3)n2)C1 (stereo not drawn) [Cpd. No. 13, N-(2-phenyl-4-(1-(pyridin-3-ylmethyl)-1H-pyrazol-3-yl)-5,6,7,8-tetrahydroquinazolin-7-yl)methanesulfonamide] |
| < 1 | C=CC(=O)N1Cc2nc(-c3ccccc3)nc(-c3ccn(C)n3)c2C1 [Cpd. No. 14, 1-(4-(1-methyl-1H-pyrazol-3-yl)-2-phenyl-5,7-dihydro-6H-pyrrolo[3,4-d]pyrimidin-6-yl)prop-2-en-1-one] |
| > 3 | CCC(=O)N1Cc2nc(-c3ccccc3)nc(-c3ccn(C)n3)c2C1 [Cpd. No. 15, 1-(4-(1-methyl-1H-pyrazol-3-yl)-2-phenyl-5,7-dihydro-6H-pyrrolo[3,4-d]pyrimidin-6-yl)propan-1-one] |
| > 3 | Cn1ccc(-c2nc(-c3ccccc3)nc3c2CN(S(C)(=O)=O)C3)n1 [Cpd. No. 16, 4-(1-methyl-1H-pyrazol-3-yl)-6-(methylsulfonyl)-2-phenyl-6,7-dihydro-5H-pyrrolo[3,4-d]pyrimidine] |

| EC50 [µM] | SMILES |
| --- | --- |
| < 1 | C=CC(=O)N1Cc2nc(Cc3ccccc3)nc(-c3ccn(Cc4cccnc4)n3)c2C1 [Cpd. No. 17, 1-(2-benzyl-4-(1-(pyridin-3-ylmethyl)-1H-pyrazol-3-yl)-5,7-dihydro-6H-pyrrolo[3,4-d]pyrimidin-6-yl)prop-2-en-1-one] |
| 1 to 3 | CCC(=O)N1Cc2nc(Cc3ccccc3)nc(-c3ccn(Cc4cccnc4)n3)c2C1 [Cpd. No. 18, 1-(2-benzyl-4-(1-(pyridin-3-ylmethyl)-1H-pyrazol-3-yl)-5,7-dihydro-6H-pyrrolo[3,4-d]pyrimidin-6-yl)propan-1-one] |
| 1 to 3 | CS(=O)(=O)N1Cc2nc(Cc3ccccc3)nc(-c3ccn(Cc4cccnc4)n3)c2C1 [Cpd. No. 19, 2-benzyl-6-(methylsulfonyl)-4-(1-(pyridin-3-ylmethyl)-1H-pyrazol-3-yl)-6,7-dihydro-5H-pyrrolo[3,4-d]pyrimidine] |
| 1 to 3 | CCC(=O)N1Cc2nc(Cc3ccccc3)nc(-c3ccn(C)n3)c2C1 [Cpd. No. 21, 1-(2-benzyl-4-(1-methyl-1H-pyrazol-3-yl)-5,7-dihydro-6H-pyrrolo[3,4-d]pyrimidin-6-yl)propan-1-one] |
| > 3 | Cn1ccc(-c2nc(Cc3ccccc3)nc3c2CN(S(C)(=O)=O)C3)n1 [Cpd. No. 22, 2-benzyl-4-(1-methyl-1H-pyrazol-3-yl)-6-(methylsulfonyl)-6,7-dihydro-5H-pyrrolo[3,4-d]pyrimidine] |
| < 1 | C=CC(=O)N1Cc2nc(-c3ccccc3)nc(-c3ccn(Cc4cccnc4)n3)c2C1 [Cpd. No. 23, 1-(2-phenyl-4-(1-(pyridin-3-ylmethyl)-1H-pyrazol-3-yl)-5,7-dihydro-6H-pyrrolo[3,4-d]pyrimidin-6-yl)prop-2-en-1-one] |
| 1 to 3 | CCC(=O)N1Cc2nc(-c3ccccc3)nc(-c3ccn(Cc4cccnc4)n3)c2C1 [Cpd. No. 24, 1-(2-phenyl-4-(1-(pyridin-3-ylmethyl)-1H-pyrazol-3-yl)-5,7-dihydro-6H-pyrrolo[3,4-d]pyrimidin-6-yl)propan-1-one] |
| 1 to 3 | CS(=O)(=O)N1Cc2nc(-c3ccccc3)nc(-c3ccn(Cc4cccnc4)n3)c2C1 [Cpd. No. 25, 6-(methylsulfonyl)-2-phenyl-4-(1-(pyridin-3-ylmethyl)-1H-pyrazol-3-yl)-6,7-dihydro-5H-pyrrolo[3,4-d]pyrimidine] |
| > 3 | CC(=O)NCC(=O)N1Cc2nc(-c3ccccc3)nc(-c3ccn(Cc4cccnc4)n3)c2C1 [Cpd. No. 26, N-(2-oxo-2-(2-phenyl-4-(1-(pyridin-3-ylmethyl)-1H-pyrazol-3-yl)-5,7-dihydro-6H-pyrrolo[3,4-d]pyrimidin-6-yl)ethyl)acetamide] |
| > 3 | CC(=O)NCC(=O)N1Cc2nc(Cc3ccccc3)nc(-c3ccn(Cc4cccnc4)n3)c2C1 [Cpd. No. 27, N-(2-(2-benzyl-4-(1-(pyridin-3-ylmethyl)-1H-pyrazol-3-yl)-5,7-dihydro-6H-pyrrolo[3,4-d]pyrimidin-6-yl)-2-oxoethyl)acetamide] |
| > 3 | CS(=O)(=O)NCC(=O)N1Cc2nc(Cc3ccccc3)nc(-c3ccn(Cc4cccnc4)n3)c2C1 [Cpd. No. 28, N-(2-(2-benzyl-4-(1-(pyridin-3-ylmethyl)-1H-pyrazol-3-yl)-5,7-dihydro-6H-pyrrolo[3,4-d]pyrimidin-6-yl)-2-oxoethyl)methanesulfonamide] |
| 1 to 3 | CNS(=O)(=O)CCN1Cc2nc(-c3ccccc3)nc(-c3ccn(Cc4cccnc4)n3)c2C1 [Cpd. No. 31, N-methyl-2-(2-phenyl-4-(1-(pyridin-3-ylmethyl)-1H-pyrazol-3-yl)-5,7-dihydro-6H-pyrrolo[3,4-d]pyrimidin-6-yl)ethane-1-sulfonamide] |
| > 3 | CCC(=O)N1CCc2c(nc(Cc3ccccc3)nc2-c2ccn(C)n2)C1 [Cpd. No. 33, 1-(2-benzyl-4-(1-methyl-1H-pyrazol-3-yl)-5,8-dihydropyrido[3,4-d]pyrimidin-7(6H)-yl)propan-1-one] |
| > 3 | Cn1ccc(-c2nc(Cc3ccccc3)nc3c2CCN(S(C)(=O)=O)C3)n1 [Cpd. No. 34, 2-benzyl-4-(1-methyl-1H-pyrazol-3-yl)-7-(methylsulfonyl)-5,6,7,8-tetrahydropyrido[3,4-d]pyrimidine] |
| 1 to 3 | CCC(=O)N1CCc2c(nc(Cc3ccccc3)nc2-c2ccn(Cc3cccnc3)n2)C1 [Cpd. No. 36, 1-(2-benzyl-4-(1-(pyridin-3-ylmethyl)-1H-pyrazol-3-yl)-5,8-dihydropyrido[3,4-d]pyrimidin-7(6H)-yl)propan-1-one] |

| SMILES | EC50 [µM] |
| --- | --- |
| O=S(=O)(F)CCN1Cc2nc(-c3ccccc3)nc(-c3ccn(Cc4cccnc4)n3)c2C1 [Cpd. No. 29, 2-(2-phenyl-4-(1-(pyridin-3-ylmethyl)-1H-pyrazol-3-yl)-5,7-dihydro-6H-pyrrolo[3,4-d]pyrimidin-6-yl)ethane-1-sulfonyl fluoride] | > 3 |
| O=S(=O)(F)CCN1Cc2nc(Cc3ccccc3)nc(-c3ccn(Cc4cccnc4)n3)c2C1 [Cpd. No. 30, 2-(2-benzyl-4-(1-(pyridin-3-ylmethyl)-1H-pyrazol-3-yl)-5,7-dihydro-6H-pyrrolo[3,4-d]pyrimidin-6-yl)ethane-1-sulfonyl fluoride] | > 3 |
